Values quoted from earlier work in patent US6994842B2, “Aerogel powder therapeutic agents” (Aspen Aerogels, Inc., priority 2000, dated 2006).

Row | SMILES | solubility in water | solubility in supercritical carbon dioxide (supercritical carbon dioxide)
1 | CCC(=O)C(CC(C)N(C)C)(c1ccccc1)c1ccccc1 (stereo not drawn) [Methadone] | 12 g/100 mL | –
2 | O=C1CC[C@@]2(O)[C@H]3Cc4ccc(O)c5c4[C@@]2(CCN3CC2CC2)[C@H]1O5 [free base Naltrexone, Naltrexone] | not that soluble | highly soluble
